{
  "source": "patent US20140186466A1",
  "about": "“NEUTRACEUTICAL FORMULATION FOR TREATMENT OF DIABETES” (Creative Medical Health Inc., priority 2012, published 2014)",
  "origin": "cited, not measured here",
  "key": {"patients with diabetes [1]": {"tested_on": "patients with diabetes", "settings": "2000 IU/daily for 18 months"}, "patients with diabetes [2]": {"tested_on": "patients with diabetes", "settings": "500 mg or 1000 mg three times a day, 52 weeks"}, "tissue uptake of glucose": {"tested_on": "tissue uptake of glucose", "settings": "healthy patients and patients with type 2 diabetes"}, "peripheral neuropathy": {"tested_on": "peripheral neuropathy", "settings": "intravenously 600 mg/day over 3 weeks"}, "type 1 diabetic patients": {"tested_on": "type 1 diabetic patients", "settings": "51 type 1 diabetic patients; 600 mg once daily, 5 weeks"}, "[3]": {"tested_on": "patients with type 2 diabetes", "settings": "57 patients, 300 mg daily or placebo, eight weeks"}, "[4]": {"tested_on": "patients with hypertension", "settings": "60 patients with hypertension; 20 mmol/d, 8 weeks"}, "[5]": {"tested_on": "streptozotocin diabetic rats", "settings": "10 g/l in drinking water, eight weeks"}, "[6]": {"tested_on": "skin microvasculature of diabetic rats", "settings": "streptozotocin-diabetic male Wistar rats; 10 g/l in drinking water"}, "mesenteric vascular bed": {"tested_on": "mesenteric vascular bed", "settings": "STZ diabetic rats; 10 g/L in drinking water, 8 weeks; intact and denuded endothelium"}, "[7]": {"settings": "in vivo"}, "dipeptidyl peptidase-IV": {"target": "dipeptidyl peptidase-IV (Homo sapiens, UniProt P27487)", "sequence (P27487 whole entry, species assumed)": "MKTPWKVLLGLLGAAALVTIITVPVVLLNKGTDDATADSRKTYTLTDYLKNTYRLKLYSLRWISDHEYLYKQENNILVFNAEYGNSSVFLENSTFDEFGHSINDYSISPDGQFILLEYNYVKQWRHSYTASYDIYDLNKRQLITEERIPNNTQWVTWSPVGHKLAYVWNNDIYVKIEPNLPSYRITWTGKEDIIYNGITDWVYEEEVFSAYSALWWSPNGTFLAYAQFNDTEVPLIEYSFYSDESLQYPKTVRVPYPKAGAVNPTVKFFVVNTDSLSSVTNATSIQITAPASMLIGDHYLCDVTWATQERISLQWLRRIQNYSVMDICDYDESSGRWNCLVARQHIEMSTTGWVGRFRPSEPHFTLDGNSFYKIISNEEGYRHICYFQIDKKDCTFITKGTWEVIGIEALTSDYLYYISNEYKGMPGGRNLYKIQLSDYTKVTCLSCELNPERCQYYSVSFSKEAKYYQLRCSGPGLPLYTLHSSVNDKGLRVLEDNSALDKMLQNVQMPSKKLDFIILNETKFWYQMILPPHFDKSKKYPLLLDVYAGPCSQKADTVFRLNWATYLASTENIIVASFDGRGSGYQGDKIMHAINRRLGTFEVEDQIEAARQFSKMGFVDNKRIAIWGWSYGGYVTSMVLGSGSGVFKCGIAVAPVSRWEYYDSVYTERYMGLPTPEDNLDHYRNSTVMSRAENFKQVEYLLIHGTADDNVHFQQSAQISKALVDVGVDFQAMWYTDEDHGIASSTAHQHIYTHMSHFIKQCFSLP"}, "diabetic rat brains": {"tested_on": "diabetic rat brains", "settings": "0.6 mg/mL in drinking water, 4 weeks"}, "diabetic rats [8]": {"tested_on": "diabetic rats", "settings": "100 mg/kg, 60 days"}, "[9]": {"tested_on": "inflammatory pathways involved in diabetic nephropathy", "settings": "rat model; 22 micrograms in water for 12 weeks (8 mcg/day)"}, "HIV-positive subjects": {"tested_on": "HIV-positive subjects", "settings": "1000 µg/day, eight weeks"}, "[10]": {"tested_on": "ischemia-reperfusion insult in rats", "settings": "10 mg chromium/kg diet for six weeks"}, "diabetic rats [11]": {"tested_on": "diabetic rats"}, "[12]": {"tested_on": "Streptozotocin-induced diabetic animals", "settings": "4 weeks"}, "[13]": {"settings": "diabetic rats, 1 mg/kg body weight"}},
  "note": "Read-outs that look alike come from different tables or passages of the source.",
  "data": [
    {"molecule": "C=C1CC[C@H](O)C/C1=C/C=C1\\CCC[C@]2(C)[C@@H]([C@H](C)CCCC(C)C)CC[C@@H]12", "note": "[Vitamin D3]", "values": [
      {"measurement": "serum lipid profiles", "setting": "patients with diabetes [1]", "result": "beneficial effects"}
    ]},
    {"molecule": "CC(=O)O[C@H](CC(=O)[O-])C[N+](C)(C)C", "note": "[acetyl-L-carnitine]", "values": [
      {"measurement": "nerve fiber regeneration", "setting": "patients with diabetes [2]", "result": "improvements"},
      {"measurement": "neuropathic pain", "setting": "patients with diabetes [2]", "result": "symptomatic relief"},
      {"measurement": "tissue uptake of glucose", "setting": "tissue uptake of glucose", "result": "dose-dependent effects"}
    ]},
    {"molecule": "O=C(O)CCCCC1CCSS1", "note": "(stereo not drawn) [alpha lipoic acid]", "values": [
      {"measurement": "neuropathic pain", "setting": "peripheral neuropathy", "result": "clinically relevant reduction"},
      {"measurement": "measures of platelet reactivity", "setting": "type 1 diabetic patients", "result": "reduced"},
      {"measurement": "fasting blood glucose levels", "setting": "[3]", "result": "reduced"}
    ]},
    {"molecule": "[O]=[Mg]", "note": "[magnesium oxide]", "values": [
      {"measurement": "ambulatory BP reduction, first value of the pair", "setting": "[4]", "result": 2.5, "unit": "mm Hg"},
      {"measurement": "ambulatory BP reduction, second value of the pair", "setting": "[4]", "result": 1.4, "unit": "mm Hg"},
      {"measurement": "home BP decrease, first value of the pair", "setting": "[4]", "result": 2.0, "unit": "mm Hg"},
      {"measurement": "home BP decrease, second value of the pair", "setting": "[4]", "result": 1.4, "unit": "mm Hg"},
      {"measurement": "office BP fall, first value of the pair", "setting": "[4]", "result": 3.7, "unit": "mm Hg"},
      {"measurement": "office BP fall, second value of the pair", "setting": "[4]", "result": 1.7, "unit": "mm Hg"}
    ]},
    {"molecule": "O=S(=O)([O-])[O-].[Mg+2]", "note": "[magnesium sulfate]", "values": [
      {"measurement": "plasma glucose", "setting": "[5]; STZ 40 mg/kg i.v. diabetic rats", "result": "to normal levels"},
      {"measurement": "high density lipoprotein (HDL)", "setting": "[5]; STZ diabetic rats", "result": "to normal levels"},
      {"measurement": "low density lipoprotein (LDL)", "setting": "[5]; STZ diabetic rats", "result": "to normal levels"},
      {"measurement": "mesenteric fat/body weight ratio", "setting": "[5]; STZ diabetic rats", "result": "reductions"},
      {"measurement": "systolic blood pressure", "setting": "[5]; STZ diabetic rats", "result": "to normal levels"},
      {"measurement": "total cholesterol", "setting": "[5]; STZ diabetic rats", "result": "to normal levels"},
      {"measurement": "triglyceride", "setting": "[5]; STZ diabetic rats", "result": "to normal levels"},
      {"measurement": "very low density lipoprotein (VLDL)", "setting": "[5]; STZ diabetic rats", "result": "to normal levels"},
      {"measurement": "endothelial relaxation stimulated with acetylcholine (Ach) or sodium nitroprusside (SNP)", "setting": "[6]", "result": "enhanced"},
      {"measurement": "mean perfusion pressure of mesenteric vascular bed", "setting": "mesenteric vascular bed", "result": "decrease"}
    ]},
    {"molecule": "CN(C)C(=N)N=C(N)N", "note": "[metformin, Metformin]", "values": [
      {"measurement": "glucose utilization", "setting": "[7]", "result": "increased"},
      {"measurement": "leptin concentrations", "setting": "[7]", "result": "reduction"},
      {"measurement": "dipeptidyl peptidase-IV activity", "setting": "dipeptidyl peptidase-IV", "result": "inhibition"}
    ]},
    {"molecule": "[Na+].[Na+].[Na+].[O]=[V]([O-])([O-])[O-]", "note": "[sodium orthovanadate]", "values": [
      {"measurement": "ischemic injury in diabetic rat brains", "setting": "diabetic rat brains", "result": "significantly reduced"},
      {"measurement": "neurobehavioral function", "setting": "diabetic rat brains", "result": "improved"}
    ]},
    {"molecule": "O=S(=O)([O-])[O-].[O]=[V+2]", "note": "[vanadyl sulfate]", "values": [
      {"measurement": "blood glucose levels", "setting": "diabetic rats [8]", "result": "lower"},
      {"measurement": "serum antioxidant enzyme levels in muscle tissue", "setting": "diabetic rats [8]", "result": "decrease"}
    ]},
    {"molecule": "chromium picolinate", "values": [
      {"measurement": "activity of inflammatory pathways involved in diabetic nephropathy", "setting": "[9]", "result": "reducing the activity"},
      {"measurement": "mean rate of glucose disposal after treatment", "setting": "HIV-positive subjects; eight HIV-positive subjects on antiretroviral therapy, before 4.41, range 3.19-12.78, p=0.03", "result": 6.51, "unit": "mg/kg LBM/min"},
      {"measurement": "increase of mean rate of glucose disposal", "setting": "HIV-positive subjects; eight HIV-positive subjects", "result": 25, "unit": "%"},
      {"measurement": "myocardial contractility and relaxation following ischemia-reperfusion insult", "setting": "[10]", "result": "recovery"},
      {"measurement": "elevated hepatic and cerebral free fatty acids and malondialdehyde", "setting": "diabetic rats [11]; high dose 13.20 μg Cr kg(−1) day(−1), relative to control (non-diabetic) levels", "result": "nearly normalized"},
      {"measurement": "elevated hepatic and cerebral free fatty acids and malondialdehyde", "setting": "diabetic rats [11]; low (human equivalent) dose 2.90 μg Cr kg(−1) day(−1)", "result": "significantly reduced"},
      {"measurement": "plasma glucose levels", "setting": "[12]; 1 mg/kg body weight daily", "result": "lowered"},
      {"measurement": "weight loss in diabetic animals", "setting": "[12]; 1 mg/kg body weight daily", "result": "increased"},
      {"measurement": "glycogen content in the livers", "setting": "[12]; 1 mg/kg body weight daily, to near control levels", "result": "normalized"},
      {"measurement": "action of insulin", "setting": "[12]; [13]", "result": "potentiate"},
      {"measurement": "plasma cholesterol levels", "setting": "[12]; [13]", "result": "lower"},
      {"measurement": "plasma triglyceride levels", "setting": "[12]; [13]", "result": "lower"}
    ]}
  ]
}
